In patent publication US8829007B2 (priority 2009, dated 2014) one finds EC50 and IC50 data, which are given here for 28 compounds.

Where a name gives a salt, the structure may show the parent alone. Read-outs that look alike come from different tables or passages of the source.

The test system of assay [1] is A/PR/8/34 influenza virus. The assay can be described thus: microbe, parasite or virus in culture. Type of assay: cell-based.
For assay [2], the system named is influenza A virus (A/PR/8/34). The assay can be described thus: microbe, parasite or virus in culture. Format: cell-based.
Where [3] appears, read: Influenza A virus, PR/8, MDCK, bDNA assay, A/PR/8/34 influenza virus replication in MDCK cells, class symbols, read-out: EC50 (mean all).
The mark [4] stands for this setting: Influenza A virus, PR/8, MDCK, CPE assay, A/PR/8/34 infected MDCK cells, class symbols, read-out: IC50 (mean all).
Where [5] appears, read: mean all, A/PR/8/34 influenza virus in MDCK cells, bDNA assay, read-out: EC50.
Setting [6] is: Influenza A virus, PR/8, MDCK, mean all, A/PR/8/34 influenza virus in MDCK cells, bDNA assay, read-out: EC50.
The mark [7] stands for this setting: Influenza A virus, PR/8, MDCK, mean all, A/PR/8/34 infected MDCK cells, CPE assay, read-out: IC50.
The mark [8] stands for this setting: mean all, bDNA viral RNA in MDCK cells infected with A/PR/8/34, read-out: EC50.
The mark [9] stands for this setting: mean all, MDCK cells infected with A/PR/8/34, cell protection (CPE), read-out: IC50.
Where [10] appears, read: Influenza A virus, PR/8, MDCK, MDCK cells infected with A/PR/8/34, bDNA viral RNA, read-out: EC50 (mean all).
Setting [11] is: Influenza A virus, PR/8, MDCK, MDCK cells infected with A/PR/8/34, cell protection (CPE), read-out: IC50 (mean all).
Setting [12] is: Influenza A virus, PR/8, 30 h, HA(−) 30 hr, A/PR/8, bDNA, mean all, read-out: Cell Influenza HA(−) 30 hr A/PR/8 bDNA:bDNA EC50 uM(Mean (All)).
[13] abbreviates: Influenza A virus, PR/8, MDCK, MDCK cells, A/PR/8/34, ATP readout, mean all, read-out: Cell Flu, MDCK protection, ATP (All: IC50: uM)(Mean (All)).

The term IC50 denotes the point on the concentration scale where inhibition reaches its midpoint. In the case of `O[C@H]1[C@@H](O)CCC[C@H]1Nc1nc(-c2c[nH]c3ncc(Cl)cc23)ncc1F` [Compound 631], the EC50 in assay [1] (setting [3]) was < 5 µM. The concentration for half-maximal inhibition (IC50) in assay [2] (setting [4]) is < 5 µM.
Consider “N-[cis-2-[[5-fluoro-2-(1H-pyrrolo[2,3-b]pyridin-3-yl)pyrimidin-4-yl]amino]cyclohexyl]methanesulfonamide [Compound 337]”, for which, in assay [1] (setting [5]), the EC50 was < 5 µM. Moreover, in assay [2] (read-out: IC50), the 50% inhibitory concentration (IC50) is 5 to 20 µM.
Regarding `CCNC(=O)N1CCC[C@H](Nc2nc(-c3c[nH]c4ncc(Cl)cc34)ncc2F)C1` [Compound 438], the EC50 in assay [1] (setting [6]) was < 5 µM. Besides, the half-inhibitory concentration (IC50) in assay [2] (setting [7]) was < 5 µM.
Turning to `COCCN1CCCC(Nc2nc(-c3c[nH]c4ncc(Cl)cc34)ncc2F)C1` (centres unmarked) [Compound 595], the EC50 in assay [1] (setting [3]) was < 5 µM. Further, the half-inhibitory concentration (IC50) in assay [2] (setting [4]) was < 5 µM.
Take `O=C(CCO)N[C@@H]1CCC[C@H](Nc2nc(-c3c[nH]c4ncc(Cl)cc34)ncc2F)C1` [Compound 634, N-[(1R,3S)-3-[[2-(5-chloro-1H-pyrrolo[2,3-b]pyridin-3-yl)-5-fluoro-pyrimidin-4-yl]amino]cyclohexyl]-3-hydroxy-propanamide hydrochloride]: the EC50 in assay [1] (setting [3]) was < 5 µM. In assay [2] (setting [4]), the half-maximal inhibitory concentration (IC50) was < 5 µM.
On to `CC(C)COC(=O)NC1CCCC(Nc2nc(-c3c[nH]c4ncc(Cl)cc34)ncc2F)C1` (centres unmarked) [Compound 699], for which, in assay [1] (setting [8]), the EC50 was < 5 µM. For the same compound, the IC50 in assay [2] (setting [9]) is < 5 µM.
For the compound `O=C(c1ccc(F)c(F)c1)N1CCC[C@H](CNc2nc(-c3c[nH]c4ncc(Cl)cc34)ncc2F)C1` [Compound 85, (R)-(3-((2-(5-chloro-1H-pyrrolo[2,3-b]pyridin-3-yl)-5-fluoropyrimidin-4-ylamino)methyl)piperidin-1-yl)(3,4-difluorophenyl)methanone], in assay [1] (setting [10]), the EC50 was < 5 µM. The IC50 in assay [2] (setting [11]) is 5 to 20 µM.
For the compound `O=C(COCc1ccccc1)N1CCC[C@H](CNc2nc(-c3c[nH]c4ncc(Cl)cc34)ncc2F)C1` [Compound 106, (R)-2-(benzyloxy)-1-(3-((2-(5-chloro-1H-pyrrolo[2,3-b]pyridin-3-yl)-5-fluoropyrimidin-4-ylamino)methyl)piperidin-1-yl)ethanone], in assay [1] (setting [10]), the EC50 is < 5 µM. Further, in assay [2] (setting [11]), the IC50 was < 5 µM.
Regarding `CC(C)(C)C(=O)N1CCC[C@H](CNc2nc(-c3c[nH]c4ncc(Cl)cc34)ncc2F)C1` [Compound 105, (R)-1-(3-((2-(5-chloro-1H-pyrrolo[2,3-b]pyridin-3-yl)-5-fluoropyrimidin-4-ylamino)methyl)piperidin-1-yl)-2,2-dimethylpropan-1-one], the EC50 in assay [1] (setting [10]) was < 5 µM. Also, the IC50 in assay [2] (setting [11]) was < 5 µM.
Regarding `CC(=O)N1CCC[C@H](CNc2nc(-c3c[nH]c4ncc(Cl)cc34)ncc2F)C1` [Compound 111, (R)-1-(3-((2-(5-chloro-1H-pyrrolo[2,3-b]pyridin-3-yl)-5-fluoropyrimidin-4-ylamino)methyl)piperidin-1-yl)ethanone], in assay [1] (setting [10]), the EC50 is < 5 µM. Moreover, the IC50 in assay [2] (setting [11]) is < 5 µM.
With `O=C(O)[C@H]1CC[C@@H](C(=O)N2CCC[C@H](CNc3nc(-c4c[nH]c5ncc(Cl)cc45)ncc3F)C2)C1` [Compound 55, (1S,3R)-3-((R)-3-((2-(5-chloro-1H-pyrrolo[2,3-b]pyridin-3-yl)-5-fluoropyrimidin-4-ylamino)methyl)piperidine-1-carbonyl)cyclopentanecarboxylic acid], the EC50 in assay [1] (setting [10]) is < 5 µM. For the same compound, the 50% inhibitory concentration (IC50) in assay [2] (setting [11]) was < 5 µM.
Turning to `C[C@@]1(O)CCC[C@H](Nc2nc(-c3c[nH]c4ncc(Cl)cc34)ncc2F)[C@H]1O` [Compound 860], the EC50 in assay [1] (mean all, A/PR/8/34 influenza virus replication, bDNA, read-out: EC50) is < 5 µM. Moreover, the half-maximal inhibitory concentration (IC50) in assay [2] (read-out: IC50) is < 5 µM.
Consider `CCC1(O)CCCC(Nc2nc(-c3c[nH]c4ncc(Cl)cc34)ncc2F)C1` (single isomer, unassigned) [Compound 709], for which the EC50 in assay [1] (setting [8]) was < 5 µM. In addition, in assay [2] (setting [9]), the IC50 was < 5 µM.
Regarding `NC(=O)C(O)CN1CCCC(Nc2nc(-c3c[nH]c4ncc(Cl)cc34)ncc2F)C1` [Compound 603, 3-((S)-3-((2-(5-chloro-1H-pyrrolo[2,3-b]pyridin-3-yl)-5-fluoropyrimidin-4-ylamino)piperidin-1-yl)-2-hydroxypropanamide], the EC50 in assay [1] (setting [3]) was < 5 µM. Further, in assay [2] (setting [4]), the IC50 was < 5 µM.
As for `NC1CCCCC1Nc1nc(-c2c[nH]c3ncc(Cl)cc23)ncc1F` (centres unmarked) [Compound 414], in assay [1] (setting [5]), the EC50 is < 5 µM. In assay [2] (mean all, A/PR/8/34 infected MDCK cells, CPE assay, read-out: IC50), the concentration for half-maximal inhibition (IC50) is < 5 µM.
For `O=S(=O)(c1ccc(F)cc1)N1CCC[C@H](CNc2nc(-c3c[nH]c4ncc(Cl)cc34)ncc2F)C1` [Compound 64, (R)-2-(5-chloro-1H-pyrrolo[2,3-b]pyridin-3-yl)-5-fluoro-N-((1-(4-fluorophenylsulfonyl)piperidin-3-yl)methyl)pyrimidin-4-amine], the EC50 in assay [1] (setting [10]) was < 5 µM. Besides, in assay [2] (setting [11]), the 50% inhibitory concentration (IC50) is 5 to 20 µM.
For `COC(=O)NC(=O)N1CCC[C@H](CNc2nc(-c3c[nH]c4ncc(Cl)cc34)ncc2F)C1` [Compound 131, (R)-methyl 3-((2-(5-chloro-1H-pyrrolo[2,3-b]pyridin-3-yl)-5-fluoropyrimidin-4-ylamino)methyl)piperidine-1-carbonylcarbamate], the EC50 in assay [1] (setting [10]) is < 5 µM. For the same compound, the half-maximal inhibitory concentration (IC50) in assay [2] (setting [11]) is < 5 µM.
Take `O=C(c1cnccn1)N1CCC[C@H](CNc2nc(-c3c[nH]c4ncc(Cl)cc34)ncc2F)C1` [Compound 101, (R)-(3-((2-(5-chloro-1H-pyrrolo[2,3-b]pyridin-3-yl)-5-fluoropyrimidin-4-ylamino)methyl)piperidin-1-yl)(pyrazin-2-yl)methanone]: the EC50 in assay [1] (setting [10]) was < 5 µM. Also, the 50% inhibitory concentration (IC50) in assay [2] (setting [11]) was < 5 µM.
On to `O=C(C1CCC1)N1CCC[C@@H](Nc2nc(-c3c[nH]c4ncc(Cl)cc34)ncc2F)C1` [Compound 319], for which the EC50 in assay [1] (setting [6]) was < 5 µM. For the same compound, in assay [2] (setting [7]), the IC50 was > 20 µM.
As to `COc1c(F)cnc2[nH]cc(-c3ncc(F)c(N[C@H]4CCC[C@@H](NC(=O)N5CC[C@@H](F)C5)C4)n3)c12` [Compound 1104, (R)-3-fluoro-N-((1R,3S)-3-((5-fluoro-2-(5-fluoro-4-methoxy-1H-pyrrolo[2,3-b]pyridin-3-yl)pyrimidin-4-yl)amino)cyclohexyl)pyrrolidine-1-carboxamide], the EC50 in assay [1] (setting [12]) was < 5 µM. Further, the half-inhibitory concentration (IC50) in assay [2] (setting [13]) was < 5 µM.
For the compound `CCCOC(=O)NC1CCCC(Nc2nc(-c3c[nH]c4ncc(Cl)cc34)ncc2F)C1` (centres unmarked) [Compound 698], the EC50 in assay [1] (setting [8]) was < 5 µM. In addition, the 50% inhibitory concentration (IC50) in assay [2] (setting [9]) is < 5 µM.
Consider `Fc1cnc(-c2c[nH]c3ncc(Cl)cc23)nc1NC1CCCN(CC2CCCCO2)C1` (centres unmarked) [Compound 663], for which, in assay [1] (bDNA assay, A/PR/8/34 influenza virus replication in MDCK cells, class symbols, read-out: EC50 (mean all)), the EC50 is < 5 µM. The IC50 in assay [2] (CPE assay, A/PR/8/34 infected MDCK cells, class symbols, read-out: IC50 (mean all)) is < 5 µM.
Consider `O=C(N[C@@H]1CCC[C@H](Nc2nc(-c3c[nH]c4ncc(Cl)cc34)ncc2F)C1)C1CCCO1` (stereo partly drawn) [Compound 638, N-[1R,3S)-3-[[2-(5-chloro-1H-pyrrolo[2,3-b]pyridin-3-yl)-5-fluoro-pyrimidin-4-yl]amino]cyclohexyl]tetrahydrofuran-2-carboxamide hydrochloride], for which the EC50 in assay [1] (setting [3]) was < 5 µM. In assay [2] (setting [4]), the IC50 was < 5 µM.
Turning to `CCOC(=O)[C@H]1CCCC[C@@H]1Nc1nc(-c2c[nH]c3ncc(Cl)cc23)ncc1F` [Compound 561, (1S,2S)-ethyl 2-(2-(5-chloro-1H-pyrrolo[2,3-b]pyridin-3-yl)-5-fluoropyrimidin-4-ylamino)cyclohexanecarboxylate], the EC50 in assay [1] (Influenza A virus, PR/8, MDCK, MDCK cells infected with A/PR/8/34, replication of influenza virus (viral RNA, bDNA), class symbols, read-out: EC50 (mean all)) is < 5 µM. For the same compound, in assay [2] (Influenza A virus, PR/8, MDCK, MDCK cells infected with A/PR/8/34, survival of infected cells, class symbols, read-out: IC50 (mean all)), the IC50 lay within 5 to 20 µM.
With `O=C(O[C@H]1CCC[C@@H](Nc2nc(-c3c[nH]c4ncc(F)cc34)ncc2F)C1)N1CC[C@H](F)C1` [Compound 1151, (S)-(1S,3R)-3-((5-fluoro-2-(5-fluoro-1H-pyrrolo[2,3-b]pyridin-3-yl)-pyrimidin-4-yl)amino)cyclohexyl 3-fluoropyrrolidine-1-carboxylate], the EC50 in assay [1] (setting [12]) was < 5 µM. The IC50 in assay [2] (setting [13]) is < 5 µM.
Turning to `O=C(c1ccc(Cl)cc1Cl)N1CCC[C@H](CNc2nc(-c3c[nH]c4ncc(Cl)cc34)ncc2F)C1` [Compound 147, (R)-(3-((2-(5-chloro-1H-pyrrolo[2,3-b]pyridin-3-yl)-5-fluoropyrimidin-4-ylamino)methyl)piperidin-1-yl)(2,4-dichlorophenyl)methanone], the EC50 in assay [1] (setting [10]) is < 5 µM. For the same compound, in assay [2] (setting [11]), the concentration for half-maximal inhibition (IC50) was < 5 µM.
Consider `CCOC(=O)N1CCC[C@@H](CNc2nc(-c3c[nH]c4ncc(Cl)cc34)ncc2F)C1` [Compound 33, (S)-ethyl 3-((2-(5-chloro-1H-pyrrolo[2,3-b]pyridin-3-yl)-5-fluoropyrimidin-4-ylamino)methyl)piperidine-1-carboxylate], for which the EC50 in assay [1] (setting [10]) is < 5 µM. For the same compound, in assay [2] (setting [11]), the half-maximal inhibitory concentration (IC50) was < 5 µM.
With `O[C@H]1[C@H](O)CCC[C@H]1Nc1nc(-c2c[nH]c3ncc(Cl)cc23)ncc1F` [Compound 616], the EC50 in assay [1] (setting [3]) is > 3.3 µM. The IC50 in assay [2] (setting [4]) was > 10 µM.
